From patent publication US20220016115A1, “USP19 INHIBITORS FOR USE IN THERAPY” (ALMAC DISCOVERY LIMITED, priority 2018, published 2022)

These compounds were tested against T1, USP19 (Homo sapiens, UniProt O94966) (assay: USP19 fluorescence polarisation (FP) homogeneous assay). Settings: Ubiquitin-Lys-TAMRA substrate, full-length USP19 2.5 nM, average of at least two duplicate experiments.
T1 sequence (O94966 1-1318): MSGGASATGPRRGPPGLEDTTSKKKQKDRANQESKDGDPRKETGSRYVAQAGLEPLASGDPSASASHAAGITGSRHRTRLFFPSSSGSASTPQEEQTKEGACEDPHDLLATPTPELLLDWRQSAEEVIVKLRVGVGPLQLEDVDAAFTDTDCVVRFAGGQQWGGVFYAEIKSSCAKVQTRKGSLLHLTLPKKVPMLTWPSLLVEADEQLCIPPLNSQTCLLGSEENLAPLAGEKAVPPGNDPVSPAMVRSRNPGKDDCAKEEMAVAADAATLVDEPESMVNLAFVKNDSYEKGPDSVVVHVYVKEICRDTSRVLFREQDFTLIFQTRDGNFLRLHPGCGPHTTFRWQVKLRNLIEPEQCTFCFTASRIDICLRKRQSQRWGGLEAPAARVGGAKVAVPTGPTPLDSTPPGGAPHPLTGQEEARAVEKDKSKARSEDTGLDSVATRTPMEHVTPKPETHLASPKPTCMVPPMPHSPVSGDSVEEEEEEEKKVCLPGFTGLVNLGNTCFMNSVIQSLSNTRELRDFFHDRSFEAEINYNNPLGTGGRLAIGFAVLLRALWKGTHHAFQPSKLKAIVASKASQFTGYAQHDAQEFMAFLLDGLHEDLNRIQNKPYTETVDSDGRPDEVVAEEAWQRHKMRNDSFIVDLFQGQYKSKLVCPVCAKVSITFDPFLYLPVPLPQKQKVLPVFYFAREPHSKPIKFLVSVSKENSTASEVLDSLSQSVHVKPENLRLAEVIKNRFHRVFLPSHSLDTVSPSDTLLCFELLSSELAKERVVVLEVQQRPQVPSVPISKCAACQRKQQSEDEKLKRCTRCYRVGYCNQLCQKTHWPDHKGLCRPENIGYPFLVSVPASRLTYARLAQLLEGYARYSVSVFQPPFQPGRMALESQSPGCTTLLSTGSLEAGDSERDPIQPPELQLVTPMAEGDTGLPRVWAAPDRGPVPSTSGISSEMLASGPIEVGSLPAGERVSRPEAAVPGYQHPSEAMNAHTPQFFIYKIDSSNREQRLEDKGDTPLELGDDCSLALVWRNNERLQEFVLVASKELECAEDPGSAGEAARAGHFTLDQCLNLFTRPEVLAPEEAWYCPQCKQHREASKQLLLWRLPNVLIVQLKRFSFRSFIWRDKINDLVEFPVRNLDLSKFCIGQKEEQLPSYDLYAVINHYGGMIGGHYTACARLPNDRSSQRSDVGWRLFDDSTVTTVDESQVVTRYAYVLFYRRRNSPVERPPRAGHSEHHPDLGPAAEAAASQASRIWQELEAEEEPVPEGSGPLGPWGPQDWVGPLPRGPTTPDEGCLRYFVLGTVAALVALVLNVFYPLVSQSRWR
Format: biochemical
Design: Full-length USP19 was purchased from Boston Biochem (E-576); purchased Boston Biochem E-576
Summary of the method: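 Inhibitors serially diluted in buffer (200 μM to 2 μM, 8-18 points) and preincubated 30 min at RT before starting with 500 nM Ub substrate.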

Question: For “3-(((S)-10-Hydroxy-7-((2R,3R)-2-phenylpyrrolidine-3-carbonyl)-7-azaspiro[4.5]decan-10-yl)methyl)-6-phenylpyrimidin-4(3H)-one and 3-(((S)-10-Hydroxy-7-((2a3S)-2-phenylpyrrolidine-3-carbonyl)-7-azaspiro[4.5]decan-10-yl)methyl)-6-phenylpyrimidin-4(3H)-one [Example 260]”, which IC50 is on record?
Answer: < 500 nM

Question: For `C[C@H](CC1CCCCC1)C(=O)N1CCC(O)(Cn2cc(C(=O)N(C)C)c(-c3ccc(CO)cc3)cc2=O)C2(CCCC2)C1` (stereo partly drawn) [Example 162, 1-((7-((R)-3-Cyclohexyl-2-methylpropanoyl)-10-hydroxy-7-azaspiro[4.5]decan-10-yl)methyl)-4-(4-(hydroxymethyl)phenyl)-N,N-dimethyl-6-oxo-1,6-dihydropyridine-3-carboxamide], which IC50 is on record?
Answer: < 500 nM

Question: For `C[C@H](CC1CCCCC1)C(=O)N1CCC(O)(Cn2cc(C(=O)N3CCOCC3)c(-c3ccccc3)cc2=O)C(C)(C)C1` (stereo partly drawn) [Example 168], which IC50 is on record?
Answer: < 500 nM

Question: `C[C@H](CC1CCCCC1)C(=O)N1CC[C@@](O)(Cn2cc(C(=O)N(C)C)c(-c3ccccc3F)cc2=O)C(C)(C)C1` [Example 205, 1-(((S)-1-((R)-3-Cyclohexyl-2-methylpropanoyl)-4-hydroxy-3,3-dimethylpiperidin-4-yl)methyl)-4-(2-fluorophenyl)-N,N-dimethyl-6-oxo-1,6-dihydropyridine-3-carboxamide] was tested. Which IC50 did it give?
Answer: < 500 nM

Question: `O=C([C@@H]1CNC[C@H]1c1ccccc1)N1CC[C@@](O)(Cn2cnc(-c3ccccc3)cc2=O)C2(CCCC2)C1` (mixture of isomers) [Example 259, 3-(((S)-10-Hydroxy-7-((3S,4R)-4-phenylpyrrolidine-3-carbonyl)-7-azaspiro[4.5]decan-10-yl)methyl)-6-phenylpyrimidin-4(3H)-one and 3-(((S)-10-Hydroxy-7-((3R,4S)-4-phenylpyrrolidine-3-carbonyl)-7-azaspiro[4.5]decan-10-yl)methyl)-6-phenylpyrimidin-4(3H)-one] was tested. Which IC50 did it give?
Answer: < 500 nM

Question: How did the IC50 turn out when `C[C@H](CC(F)(F)F)C(=O)N1CC[C@@](O)(Cn2cc(C(=O)N3CCN(C)CC3)c(-c3ccccc3)cc2=O)C2(CCCC2)C1` [Example 251, 1-(((S)-10-Hydroxy-7-((R)-4,4,4-trifluoro-2-methylbutanoyl)-7-azaspiro[4.5]decan-10-yl)methyl)-5-(4-methylpiperazine-1-carbonyl)-4-phenylpyridin-2(1 H)-one] was run?
Answer: < 500 nM

Question: For `C[C@H](CC1CCCCC1)C(=O)N1CC[C@@](O)(Cn2cc(C(=O)N(C)C)c(C3CC3)cc2=O)C2(CCCC2)C1` [Example 232, 1-(((S)-7-((R)-3-Cyclohexyl-2-methylpropanoyl)-10-hydroxy-7-azaspiro[4.5]decan-10-yl)methyl)-4-cyclopropyl-N,N-dimethyl-6-oxo-1,6-dihydropyridine-3-carboxamide], which IC50 is on record?
Answer: < 500 nM

Question: Which IC50 does the source give for `CC(n1cnc(-c2ccccc2)cc1=O)C1(O)CCN(C(=O)C[C@@H](C)c2ccccc2)CC1` (mixture of isomers) [Example 47, 3-((R)-1-(4-Hydroxy-1-((R)-3-phenylbutanoyl)piperidin-4-yl)ethyl)-6-phenylpyrimidin-4(3H)-one and 3-((S)-1-(4-hydroxy-1-((R)-3-phenylbutanoyl)piperidin-4-yl)ethyl)-6-phenylpyrimidin-4(3H)-one] here?
Answer: 50000 to 250000 nM

Question: Which IC50 does the source give for `C[C@H](CC1CCCCC1)C(=O)N1CC[C@@](O)(Cn2cc(C(=O)N3CCC(O)CC3)c(-c3ccccc3)cc2=O)C(C)(C)C1` [Example 228, 1-(((S)-1-((R)-3-Cyclohexyl-2-methylpropanoyl)-4-hydroxy-3,3-dimethylpiperidin-4-yl)methyl)-5-(4-hydroxypiperidine-1-carbonyl)-4-phenylpyridin-2(1 H)-one] here?
Answer: < 500 nM

Question: For `O=C(c1cn(C[C@]2(O)CCN(C(=O)[C@H](CO)CC(F)(F)F)CC23CCCC3)c(=O)cc1-c1ccccc1)N1CCOCC1` [Example 248, 1-(((S)-10-Hydroxy-7-((S)-4,4,4-trifluoro-2-(hydroxymethyl)butanoyl)-7-azaspiro[4.5]decan-10-yl)methyl)-5-(morpholine-4-carbonyl)-4-phenylpyridin-2(1H)-one], which IC50 is on record?
Answer: < 500 nM

Question: Which IC50 does the source give for `C[C@H](CC1CCCCC1)C(=O)N1CC[C@@](O)(Cn2cc(C(=O)N(C)C)c(-c3ccccc3)cc2=O)C(C)(C)C1` [Example 121, 1-(((S)-1-((R)-3-Cyclohexyl-2-methylpropanoyl)-4-hydroxy-3,3-dimethylpiperidin-4-yl)methyl)-N,N-dimethyl-6-oxo-4-phenyl-1,6-dihydropyridine-3-carboxamide] here?
Answer: < 500 nM

Question: For `C[C@H](CC1CCCCC1)C(=O)N1CCC(O)(Cn2cnc(-c3ccccc3F)cc2=O)C2(CCCC2)C1` (stereo partly drawn) [Example 119, 3-((7-((R)-3-Cyclohexyl-2-methylpropanoyl)-10-hydroxy-7-azaspiro[4.5]decan-10-yl)methyl)-6-(2-fluorophenyl)pyrimidin-4(3H)-one], which IC50 is on record?
Answer: < 500 nM
